Data from patent USRE38425E1, “Semicarbazones having CNS activity and pharmaceutical preparations containing same” (University of Saskatchewan Technologies, Inc., priority 1995, dated 2004).

Experiments:
mice [1] = assay: MES screen after intraperitoneal injection in mice; type: in vivo; conditions: intraperitoneal injection in mice; time t (h) per compound as in the table
mice [2] = conditions: intraperitoneal injection in mice; time t (h) per compound as in the table
mice [3] = conditions: for neurotoxicity screen TD50: intraperitoneal injection in mice, time t (h) per compound as in the table
rats [4] = assay: MES screen after oral administration to rats; conditions: oral administration to rats; for MES screen ED50: time t (h) per compound as in the table
rats [5] = assay: neurotoxicity screen after oral administration to rats; conditions: oral administration to rats; time t (h) per compound as in the table

SMILES | MES screen ED50 (mice [1]) [mg/kg] | acPTZ screen ED50 (mice [2]) [mg/kg] | neurotoxicity screen TD50 (mice [3]) [mg/kg] | MES screen ED50 (rats [4]) [mg/kg] | neurotoxicity screen TD50 (rats [5]) [mg/kg] | MES screen: number of rats out of 4 which were protected (rats [4]; dose 30 mg/kg, 0.5 h) | MES screen: number of rats out of 4 which were protected (rats [4]; dose 30 mg/kg, 1 h) | MES screen: number of rats out of 4 which were protected (rats [4]; dose 30 mg/kg, 2 h) | MES screen: number of rats out of 4 which were protected (rats [4]; dose 12.5 mg/kg, 0.5 h) | MES screen: number of rats out of 4 which were protected (rats [4]; dose 12.5 mg/kg, 1 h) | MES screen: number of rats out of 4 which were protected (rats [4]; dose 12.5 mg/kg, 2 h) | MES screen: number of rats out of 4 which were protected (rats [4]; dose 12.5 mg/kg, 4 h) | other results
CC(C)(C)c1ccc(Oc2ccc(C=NNC(N)=O)cc2)cc1 [Compound 5s] | 8.87 | >150.00 | 105.92 | 1.68 | >500 |  |  |  |  |  |  |  | MES screen 1 h: number of rats out of 4 which were protected (rats [4]; dose 12.5 mg/kg, 1 h): 4; MES screen 2 h: number of rats out of 4 which were protected (rats [4]; dose 12.5 mg/kg, 2 h): 4; MES screen 4 h: number of rats out of 4 which were protected (rats [4]; dose 12.5 mg/kg, 4 h): 4
CC(C)(C)CC(C)(C)c1ccc(Oc2ccc(C=NNC(N)=O)cc2)cc1 [Compound 5t] | 11.27 | >200 | 124.53 |  |  |  |  |  |  |  |  |  | 
CCCCOc1ccc(Oc2ccc(C=NNC(N)=O)cc2)cc1 [Compound 5u] |  |  |  | 45.81 |  |  |  |  |  |  |  |  | MES screen 4 h: number of rats out of 4 which were protected (rats [4]; dose 12.5 mg/kg, 4 h): 2
CCCCCCCOc1ccc(Oc2ccc(C=NNC(N)=O)cc2)cc1 [Compound 5v] |  |  |  |  |  |  |  |  |  |  |  |  | toxicity screen 4 h: minimum dose whereby bioactivity was demonstrated in half or more of the mice (mice [3]; mouse, in vivo): −
CC(=NNC(N)=O)c1ccc(Oc2ccccc2)cc1 [Compound 13a] | 9.08 | 43.31 | 73.48 | 9.73 |  | 4 | 4 | 4 |  |  |  |  | MES screen: number of rats out of 4 which were protected (rats [4]; dose 30 mg/kg, 0.25 h): 4; MES screen: number of rats out of 4 which were protected (rats [4]; dose 30 mg/kg, 4 h): 4
CC(=NNC(N)=O)c1ccc(Oc2ccc(F)cc2)cc1 [Compound 13b] | 11.63 | >80 | 60.74 | 3.37 | 108.77 |  |  |  | 4 | 4 | 4 | 4 | 
CC(=NNC(N)=O)c1ccc(Oc2ccc(Cl)cc2)cc1 [Compound 13c] |  |  |  | 2.92 | <500 | 4 | 4 | 4 |  |  |  |  | MES screen: number of rats out of 4 which were protected (rats [4]; dose 30 mg/kg, 0.25 h): 3; MES screen: number of rats out of 4 which were protected (rats [4]; dose 30 mg/kg, 4 h): 4
CC(=NNC(N)=O)c1ccc(Oc2ccc(Br)cc2)cc1 [Compound 13d] |  |  |  | 1.52 | >500 |  |  |  | 3 | 4 | 4 | 4 | MES screen: number of rats out of 4 which were protected (rats [4]; dose 12.5 mg/kg, 0.25 h): 1
CCC(=NNC(N)=O)c1ccc(Oc2ccccc2)cc1 [Compound 13e] |  |  |  | 23.08 |  | 4 | 3 | 3 |  |  |  |  | MES screen: number of rats out of 4 which were protected (rats [4]; dose 30 mg/kg, 0.25 h): 1
CCC(=NNC(N)=O)c1ccc(Oc2ccc(F)cc2)cc1 [Compound 13f] | 5.46 | 12.84 | 35.26 | 4.25 |  |  |  |  | 2 | 4 | 4 | 4 | 
CCC(=NNC(N)=O)c1ccc(Oc2ccc(Cl)cc2)cc1 [Compound 13g] | 11.09 |  | <100 | 2.89 | >500 | 1 | 4 | 4 |  |  |  |  | MES screen: number of rats out of 4 which were protected (rats [4]; dose 30 mg/kg, 4 h): 4
CCC(=NNC(N)=O)c1ccc(Oc2ccc(Br)cc2)cc1 [Compound 13h] |  |  |  | 4.39 |  |  |  |  | 2 | 4 | 4 | 4 | 
CC(=NNC(N)=O)c1ccccc1Oc1ccc(F)cc1 [Compound 14b] |  |  |  | 43.37 |  | 1 | 3 | 3 |  |  |  |  | MES screen: number of rats out of 4 which were protected (rats [4]; dose 30 mg/kg, 0.25 h): 1; MES screen: number of rats out of 4 which were protected (rats [4]; dose 30 mg/kg, 4 h): 2
NC(=O)NN=Cc1ccc(OS(=O)(=O)c2ccccc2)cc1 [Compound 15f] | 25.27 | >100 | 113.00 |  |  |  |  |  | 2 | 2 | 4 | 3 | MES screen: number of rats out of 4 which were protected (rats [4]; dose 12.5 mg/kg, 0.25 h): 1
